Test results from patent US6380203B1, “Angiogenesis inhibitors” (Merck & Co., Inc., priority 1998, dated 2002).

melting point: 149 to 151 °C
SMILES: c1cc(-c2cnn3cc(-c4ccc(OCCN5CCOCC5)cc4)cnc23)cs1 [Example 4, 3-(3-thienyl)-6-(4-(2-(4-morpholinyl)ethoxy)phenyl) pyrazolo(1,5-A)pyrimidine]
